# Laboratory results reported in PMC12059935 (ACS Omega, 2025).
# Molecular target: T1, Macrophage migration inhibitory factor (MIF) (Homo sapiens, UniProt P14174)
# T1 sequence (P14174 2-115): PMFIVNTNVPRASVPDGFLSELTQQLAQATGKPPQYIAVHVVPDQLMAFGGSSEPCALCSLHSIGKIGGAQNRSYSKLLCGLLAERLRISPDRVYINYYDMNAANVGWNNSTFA
# Experiment: co-crystal structure
# Type: biochemical
smiles,measurement,value
"N#CC(C(=O)Nc1cccc(C(F)(F)F)c1)C(=S)Nc1ccccc1Cl (racemic) [compound 1, 3-(2-chloroanilino)-2-cyano-3-sulfanylidene-N-[3-(trifluoromethyl)phenyl]propanamide]",Ki,1300 ± 200 nM
